# From PMC8206134, “Structural basis of mechano-chemical coupling by the mitotic kinesin KIF14” (Nature Communications, 2021)
# T1: KIF14 K735 (MT-K735) (Mus musculus, UniProt L0N7N1)
# T1 construct: core motor domain N391-L735, no neck-linker; GST tag cleaved (PreScission), E. coli BL21(DE3) pLysS; monomer; with Tubulin alpha chain (Sus scrofa, porcine brain); Tubulin beta chain (Sus scrofa, porcine brain)
# T1 sequence (L0N7N1 391-735): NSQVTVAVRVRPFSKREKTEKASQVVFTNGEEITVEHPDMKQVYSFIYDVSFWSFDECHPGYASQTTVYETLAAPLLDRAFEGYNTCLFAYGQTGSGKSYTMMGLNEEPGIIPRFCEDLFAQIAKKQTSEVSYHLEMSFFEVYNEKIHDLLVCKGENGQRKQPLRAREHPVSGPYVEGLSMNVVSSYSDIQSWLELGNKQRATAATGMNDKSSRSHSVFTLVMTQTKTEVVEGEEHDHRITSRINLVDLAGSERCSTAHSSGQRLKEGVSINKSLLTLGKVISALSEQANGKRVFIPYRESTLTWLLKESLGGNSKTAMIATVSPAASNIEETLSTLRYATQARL
# T2: KIF14 K743 (MT-K743) (Mus musculus, UniProt L0N7N1)
# T2 construct: motor domain plus 8 neck-linker residues N391-N743; GST tag cleaved (PreScission), E. coli BL21(DE3) pLysS; monomer; with Tubulin alpha chain (Sus scrofa, porcine brain); Tubulin beta chain (Sus scrofa, porcine brain)
# T2 sequence (L0N7N1 391-743): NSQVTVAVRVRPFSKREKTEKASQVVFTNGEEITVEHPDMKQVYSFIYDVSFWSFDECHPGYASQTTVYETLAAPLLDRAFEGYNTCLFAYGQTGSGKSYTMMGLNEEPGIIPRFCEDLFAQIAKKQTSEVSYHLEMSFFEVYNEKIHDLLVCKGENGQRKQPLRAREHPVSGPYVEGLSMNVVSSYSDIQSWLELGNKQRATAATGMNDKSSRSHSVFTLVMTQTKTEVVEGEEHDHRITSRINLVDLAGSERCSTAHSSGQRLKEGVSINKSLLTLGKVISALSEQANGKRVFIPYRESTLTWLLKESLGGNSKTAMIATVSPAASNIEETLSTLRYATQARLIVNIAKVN
# T3: KIF14 K755 (MT-K755) (Mus musculus, UniProt L0N7N1)
# T3 construct: motor domain, neck-linker and part of first CC1 heptad N391-K755; GST tag cleaved (PreScission), E. coli BL21(DE3) pLysS; with Tubulin alpha chain (Sus scrofa, porcine brain); Tubulin beta chain (Sus scrofa, porcine brain)
# T3 sequence (L0N7N1 391-755): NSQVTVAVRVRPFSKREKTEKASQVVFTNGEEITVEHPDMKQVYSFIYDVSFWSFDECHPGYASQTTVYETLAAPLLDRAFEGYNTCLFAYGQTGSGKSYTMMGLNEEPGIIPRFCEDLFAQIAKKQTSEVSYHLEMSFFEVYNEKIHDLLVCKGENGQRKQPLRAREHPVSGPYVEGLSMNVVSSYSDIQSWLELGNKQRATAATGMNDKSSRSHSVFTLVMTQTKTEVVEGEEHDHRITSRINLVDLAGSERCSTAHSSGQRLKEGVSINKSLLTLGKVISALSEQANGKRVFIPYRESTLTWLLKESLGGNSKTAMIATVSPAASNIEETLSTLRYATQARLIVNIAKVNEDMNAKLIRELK
# T4: KIF14 K748 (MT-K748) (Mus musculus, UniProt L0N7N1)
# T4 construct: motor domain plus 13 neck-linker residues N391-A748; GST tag cleaved (PreScission), E. coli BL21(DE3) pLysS; monomer; with Tubulin alpha chain (Sus scrofa, porcine brain); Tubulin beta chain (Sus scrofa, porcine brain)
# T4 sequence (L0N7N1 391-748): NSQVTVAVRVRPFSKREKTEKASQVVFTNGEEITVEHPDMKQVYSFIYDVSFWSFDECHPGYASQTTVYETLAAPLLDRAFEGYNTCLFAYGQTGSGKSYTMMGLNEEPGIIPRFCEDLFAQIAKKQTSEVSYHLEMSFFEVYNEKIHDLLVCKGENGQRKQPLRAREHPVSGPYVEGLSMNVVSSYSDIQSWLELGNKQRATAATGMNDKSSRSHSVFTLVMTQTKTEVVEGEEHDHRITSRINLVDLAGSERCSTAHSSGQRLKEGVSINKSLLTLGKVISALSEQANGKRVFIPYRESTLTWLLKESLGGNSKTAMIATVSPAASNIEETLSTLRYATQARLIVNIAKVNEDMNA
# Key:
# KIF14 K735 (MT-K735) [1] = biological target: T1, KIF14 K735 (MT-K735); test: cryo-EM structure; assay type: binding; conditions: microtubule-bound; 4 mM ADP plus 2 mM AlCl3 and 10 mM KF; AlFx and Mg2+ densities near noise; open* conformation
# KIF14 K743 (MT-K743) = biological target: T2, KIF14 K743 (MT-K743); test: malachite green phosphate assay; assay type: biochemical; conditions: 1 mM ATP, 2 uM paclitaxel-stabilised microtubules, 50 nM KIF14, 1 mM MgCl2, PIPES pH 6.8
# Source text: (§1) malachite green phosphate assay on KIF14 […] (MT-[…]) | Microtubule-stimulated ATPase rate of […], […], […], and […] constructs
# KIF14 K735 (MT-K735) [2] = biological target: T1, KIF14 K735 (MT-K735); test: malachite green phosphate assay; assay type: biochemical; conditions: 1 mM ATP, 2 uM paclitaxel-stabilised microtubules, 50 nM KIF14, 1 mM MgCl2, PIPES pH 6.8
# Source text: as §1
# KIF14 K755 (MT-K755) = biological target: T3, KIF14 K755 (MT-K755); test: malachite green phosphate assay; assay type: biochemical; conditions: 1 mM ATP, 2 uM paclitaxel-stabilised microtubules, 50 nM KIF14, 1 mM MgCl2, PIPES pH 6.8
# Source text: as §1
# KIF14 K748 (MT-K748) = biological target: T4, KIF14 K748 (MT-K748); test: malachite green phosphate assay; assay type: biochemical; conditions: 1 mM ATP, 2 uM paclitaxel-stabilised microtubules, 50 nM KIF14, 1 mM MgCl2, PIPES pH 6.8
# Source text: as §1
# [3] = biological target: the molecule itself; test: SEC; size-exclusion chromatography of the KIF14 constructs alone in solution, elution compared with protein standards (66, 44 and 25 kDa)
molecule,measurement,setting,value
Nc1ncnc2c1ncn2[C@@H]1O[C@H](COP(=O)(O)OP(=O)(O)O)[C@@H](O)[C@H]1O [ADP],cryo-EM structure,KIF14 K735 (MT-K735) [1],The MT-K735-AAF and MT-K743-AAF maps contain strong densities associated with ADP
Nc1ncnc2c1ncn2[C@@H]1O[C@H](COP(=O)(O)OP(=O)(O)OP(=O)(O)O)[C@@H](O)[C@H]1O [ATP],Microtubule-stimulated ATPase rate,KIF14 K743 (MT-K743),"Microtubule-stimulated ATPase rate of K735, K743, K748, and K755 constructs"
same,Microtubule-stimulated ATPase rate,KIF14 K735 (MT-K735) [2],"Microtubule-stimulated ATPase rate of K735, K743, K748, and K755 constructs"
same,Microtubule-stimulated ATPase rate,KIF14 K755 (MT-K755),"Microtubule-stimulated ATPase rate of K735, K743, K748, and K755 constructs"
same,Microtubule-stimulated ATPase rate,KIF14 K748 (MT-K748),"Microtubule-stimulated ATPase rate of K735, K743, K748, and K755 constructs"
"KIF14 construct K772 (residues Asn-391 to Asp-772) (domain or fragment, mouse, UniProt L0N7N1 391-772, looked up, KIF14, mouse (Mus musculus), full length 1674 amino acids; Dimer in solution by size-exclusion chromatography; source: E. coli BL21 (DE3) pLysS, purified (glutathione resin, cleaved on beads with PreScission protease)) NSQVTVAVRVRPFSKREKTEKASQVVFTNGEEITVEHPDMKQVYSFIYDVSFWSFDECHPGYASQTTVYETLAAPLLDRAFEGYNTCLFAYGQTGSGKSYTMMGLNEEPGIIPRFCEDLFAQIAKKQTSEVSYHLEMSFFEVYNEKIHDLLVCKGENGQRKQPLRAREHPVSGPYVEGLSMNVVSSYSDIQSWLELGNKQRATAATGMNDKSSRSHSVFTLVMTQTKTEVVEGEEHDHRITSRINLVDLAGSERCSTAHSSGQRLKEGVSINKSLLTLGKVISALSEQANGKRVFIPYRESTLTWLLKESLGGNSKTAMIATVSPAASNIEETLSTLRYATQARLIVNIAKVNEDMNAKLIRELKAEIEKLKAAQRSNRNID",stoichiometry N,[3],2
